Experimental data taken from US20150307938A1, “METHOD TO IDENTIFY A NOVEL CLASS OF IMMUNOLOGIC ADJUVANTS” (Lancell, L.L.C., priority 2011, published 2015).
Counter-ions that a name gives are not always drawn.

How the values were obtained:
[1] = test system: Murine Skin Dendritic Cells; assay: Activation of murine skin dendritic cells by DBP vs. DBlT (DC per lymph node, CD86); assay type: in vivo; details: topical treatment
Fluzone = test system: Fluzone; design: species or system C57BL/6 mice; details: mouse, in vivo
skin = assay: Affymetrix microarray of skin, DBP-4 hr and analogs vs. untreated; gene selection by log-2 fold change, Wilcoxon, Kendall tau (Tables 8, 9); assay type: in vivo, mouse
skin dendritic cells = assay: Flow cytometric analysis of Ahr−/− response to topical DBP; details: topical application

CCCCOC(=O)[C@H](O)[C@@H](O)C(=O)OCCCC [DBlT, dibutyl L tartrate]
MFI CD86 [1]: 634 (126)
HAI titer / adjuvant effect with the same dose of Fluzone (Fluzone): almost but not quite as good as DBT had

COC(=O)c1ccccc1C(=O)OC [DMP, dimethylphthalate]
Log2 Expression Level (skin; gene #1 of Table 8): 5.82
Log2 Expression Level (skin; gene #2 of Table 8): 6.47
Log2 Expression Level (skin; gene #3 of Table 8): 8.83
Log2 Expression Level (skin; gene #4 of Table 8): 8.83
Log2 Expression Level (skin; gene #5 of Table 8): 6.08
Log2 Expression Level (skin; gene #6 of Table 8): 6.09
Log2 Expression Level (skin; gene #7 of Table 8): 5.32
Log2 Expression Level (skin; gene #8 of Table 8): 6.09
Log2 Expression Level (skin; gene #9 of Table 8): 6.09
Log2 Expression Level (skin; gene #10 of Table 8): 6.09
Log2 Expression Level (skin; gene #11 of Table 8): 5.32
Log2 Expression Level (skin; gene #12 of Table 8): 5.32
Log2 Expression Level (skin; gene #13 of Table 8): 5.32
Log2 Expression Level (skin; gene #14 of Table 8): 4.91
Log2 Expression Level (skin; gene #15 of Table 8): 4.91
Log2 Expression Level (skin; gene #16 of Table 8): 6.50
Log2 Expression Level (skin; gene #17 of Table 8): 8.80
Log2 Expression Level (skin; gene #18 of Table 8): 8.80
Log2 Expression Level (skin; gene #19 of Table 8): 8.29
Log2 Expression Level (skin; gene #20 of Table 8): 8.26
Log2 Expression Level (skin; gene #21 of Table 8): 7.91
Log2 Expression Level (skin; gene #22 of Table 8): 5.99
Log2 Expression Level (skin; gene #23 of Table 8): 5.65
Log2 Expression Level (skin; gene #24 of Table 8): 7.33
Log2 Expression Level (skin; gene #25 of Table 8): 7.33
Log2 Expression Level (skin; gene #26 of Table 8): 7.55
Log2 Expression Level (skin; gene #27 of Table 8): 7.55
Log2 Expression Level (skin; gene #28 of Table 8): 7.55
Log2 Expression Level (skin; gene #29 of Table 8): 5.77
Log2 Expression Level (skin; gene #30 of Table 8): 8.30
Log2 Expression Level (skin; gene #31 of Table 8): 8.30
Log2 Expression Level (skin; gene #32 of Table 8): 8.30
Log2 Expression Level (skin; gene #33 of Table 8): 5.48
Log2 Expression Level (skin; gene #34 of Table 8): 6.50
Log2 Expression Level (skin; gene #35 of Table 8): 6.50
Log2 Expression Level (skin; gene #36 of Table 8): 8.83
Log2 Expression Level (skin; gene #37 of Table 8): 8.83
Log2 Expression Level (skin; gene #38 of Table 8): 8.83
Log2 Expression Level (skin; gene #39 of Table 8): 7.03
Log2 Expression Level (skin; gene #40 of Table 8): 7.09
Log2 Expression Level (skin; gene #41 of Table 8): 7.32
Log2 Expression Level (skin; gene #42 of Table 8): 6.91
Log2 Expression Level (skin; gene #43 of Table 8): 6.91
Log2 Expression Level (skin; gene #44 of Table 8): 7.32
Log2 Expression Level (skin; gene #45 of Table 8): 6.91
Log2 Expression Level (skin; gene #46 of Table 8): 7.32
Log2 Expression Level (skin; gene #47 of Table 8): 8.08
Log2 Expression Level (skin; gene #48 of Table 8): 8.08
Log2 Expression Level (skin; gene #49 of Table 8): 8.08
Log2 Expression Level (skin; gene #50 of Table 8): 9.13
Log2 Expression Level (skin; gene #51 of Table 8): 7.49
Log2 Expression Level (skin; gene #52 of Table 8): 9.61
Log2 Expression Level (skin; gene #53 of Table 8): 8.18
Log2 Expression Level (skin; gene #54 of Table 8): 9.63
Log2 Expression Level (skin; gene #55 of Table 8): 6.47
Log2 Expression Level (skin; gene #56 of Table 8): 9.09
Log2 Expression Level (skin; gene #57 of Table 8): 8.30
Log2 Expression Level (skin; gene #58 of Table 8): 8.81
Log2 Expression Level (skin; gene #59 of Table 8): 8.07
Log2 Expression Level (skin; gene #60 of Table 8): 6.96
Log2 Expression Level (skin; gene #61 of Table 8): 11.13
Log2 Expression Level (skin; gene #62 of Table 8): 7.95
Log2 Expression Level (skin; gene #63 of Table 8): 10.28
Log2 Expression Level (skin; gene #64 of Table 8): 10.44
Log2 Expression Level (skin; gene #65 of Table 8): 6.81
Log2 Expression Level (skin; gene #66 of Table 8): 8.09
Log2 Expression Level (skin; gene #67 of Table 8): 4.20
Log2 Expression Level (skin; gene #68 of Table 8): 7.36
Log2 Expression Level (skin; gene #69 of Table 8): 5.28
Log2 Expression Level (skin; gene #70 of Table 8): 3.86
Log2 Expression Level (skin; gene #71 of Table 8): 7.42
Log2 Expression Level (skin; gene #72 of Table 8): 7.77
Log2 Expression Level (skin; gene #73 of Table 8): 5.38
Log2 Expression Level (skin; gene #74 of Table 8): 7.07
Log2 Expression Level (skin; gene #75 of Table 8): 8.29
Log2 Expression Level (skin; gene #76 of Table 8): 4.15
Log2 Expression Level (skin; gene #77 of Table 8): 8.59
Log2 Expression Level (skin; gene #78 of Table 8): 9.90
Log2 Expression Level (skin; gene #79 of Table 8): 7.10
Log2 Expression Level (skin; gene #80 of Table 8): 12.64
Log2 Expression Level (skin; gene #81 of Table 8): 5.57
Log2 Expression Level (skin; gene #82 of Table 8): 4.77
Log2 Expression Level (skin; gene #83 of Table 8): 6.70
Log2 Expression Level (skin; gene #84 of Table 8): 6.49
Log2 Expression Level (skin; gene #85 of Table 8): 4.59
Log2 Expression Level (skin; gene #86 of Table 8): 6.27
Log2 Expression Level (skin; gene #87 of Table 8): 8.57
Log2 Expression Level (skin; gene #88 of Table 8): 5.28
Log2 Expression Level (skin; gene #89 of Table 8): 5.43
Log2 Expression Level (skin; gene #90 of Table 8): 9.55
Log2 Expression Level (skin; gene #91 of Table 8): 6.99
Log2 Expression Level (skin; gene #92 of Table 8): 6.96
Log2 Expression Level (skin; gene #93 of Table 8): 8.40
Log2 Expression Level (skin; gene #94 of Table 8): 7.22
Log2 Expression Level (skin; gene #95 of Table 8): 5.77
Log2 Expression Level (skin; gene #96 of Table 8): 7.21
Log2 Expression Level (skin; gene #97 of Table 8): 5.27
Log2 Expression Level (skin; gene #98 of Table 8): 4.12
Log2 Expression Level (skin; gene #99 of Table 8): 8.88
Log2 Expression Level (skin; gene #100 of Table 8): 6.73

CC12CCC(CC1=O)C2(C)C (centres unmarked) [camphor]
HAI titer / adjuvant effect with the same dose of Fluzone (Fluzone): improved

O=[N+]([O-])c1ccc(F)c([N+](=O)[O-])c1 [dinitrofluorobenzene, reference compound]
skin dendritic cell response in AhR−/− mice (skin dendritic cells): severely impaired
